Laboratory results: patent publication US20220251052A1, “IMPROVED PROCESS FOR THE PREPARATION OF 2-(3,5-DICHLOROPHENYL)-1,3-BENZOXAZOLE-6-CARBOXYLIC ACID OR ITS PHARMACEUTICALLY ACCEPTABLE SALTS AND POLYMORPHS THEREOF” (MSN LABORATORIES PRIVATE LIMITED, R&D CENTER, priority 2019, published 2022)

Assay: Solid-state stability of the crystalline form under stress conditions
Assay type: physicochemical
Settings: 60±5° C. for 24 hours; 10 tons of pressure; UV light at 254nm for 24 hours; 75±5% relative humidity for 24 hours
Experimental: In third aspect of third embodiment, crystalline Form-R of Tafamidis of formula (I) is stable under stress conditions at 60±5° C. for 24 hours, 10 tons of pressure, under UV light at 254nm for 24 hours and higher humidity conditions of 75±5% relative humidity for 24 hours.

polymorphic stability under stress conditions (does not convert to any other polymorphic form): stable
SMILES: O=C(O)c1ccc2nc(-c3cc(Cl)cc(Cl)c3)oc2c1 [Form-R, 2-(3,5-dichlorophenyl)-1,3-benzoxazole-6-carboxylic acid]
